Experiment: phosphorescence of singlet oxygen (near IR emission spectrum)
Conditions: in CD2Cl2 at room temperature, λexc=670 nm
Description: The spectrum was recorded from a suspension of the photosensitizing nanomaterial in CD2Cl2 at room temperature, λexc=670 nm.
The singlet oxygen ^1O2 is produced by reaction of triplet oxygen (^3O2) with the monomeric form of the silicon (IV) phthalocyanine chloride complex, which is present on the surface of the zeolite L crystals, according to an example of the present disclosure. The generation of the singlet oxygen ^1O2 was investigated by measuring the near IR emission spectrum of the photosensitizing nanomaterials 40 in a suspension with deuteriated dichloromethane as the solvent (CD2Cl2). […] No characteristic phosphorescence can be detected.
Fluorescence emission and excitation spectra of the photosensitizing nanomaterial 40 suspended in CH2Cl2 were recorded by using a HORIBA Jobin-Yvon IBH FL-322 Fluorolog 3 spectrometer. The phosphorescence spectrum of ^1O2 in CD2Cl2 was recorded by using a HORIBA Jobin-Yvon IBH FL-322 Fluorolog 3 spectrometer equipped with an air-cooled Hamamatsu H9170-75 (InP/InGaAs) PMT detector.

In the case of Cl[Si]1(Cl)n2c3c4ccccc4c2N=C2N=C(N=c4c5ccccc5c(n41)=NC1=NC(=N3)c3ccccc31)c1ccccc12 [silicon (IV) phthalocyanine chloride, Si(IV) phthalocyanine dichloride], the “generation of singlet oxygen (1O2), characteristic phosphorescence” value is reported as “does not show any generation of the singlet oxygen”.
